{"source": "ChEMBL document CHEMBL1201862", "about": "“PubChem BioAssay data set” (2004)", "key": {"[1]": {"target": "Sphingosine 1-phosphate receptor 2 (Homo sapiens, UniProt O95136)", "sequence (O95136 whole entry)": "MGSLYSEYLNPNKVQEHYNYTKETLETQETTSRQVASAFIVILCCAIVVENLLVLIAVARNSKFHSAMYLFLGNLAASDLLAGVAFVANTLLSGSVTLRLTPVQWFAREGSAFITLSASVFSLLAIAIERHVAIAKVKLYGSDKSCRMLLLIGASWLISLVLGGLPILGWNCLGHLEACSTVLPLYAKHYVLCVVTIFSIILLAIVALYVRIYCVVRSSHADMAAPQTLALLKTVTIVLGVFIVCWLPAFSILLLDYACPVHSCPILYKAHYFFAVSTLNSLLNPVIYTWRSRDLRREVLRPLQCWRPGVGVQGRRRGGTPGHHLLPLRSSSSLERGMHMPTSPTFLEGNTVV", "assay": "Dose Response Cell Based Assay for Agonists of the S1P2 Receptor. [Related pubchem assays: 729, 736, 843 ]", "type": "functional"}, "[2]": {"assay": "microbe, parasite or virus in culture", "type": "functional", "conditions": "Mycobacterium tuberculosis"}, "[3]": {"target": "SUMO-activating enzyme (Homo sapiens, UniProt Q9UBT2)", "assay": "blockers of SAE1/SAE2–UBC9 SUMO transfer – biochemical, HTRF, uHTS, primary screen (AID 2006)", "type": "protein-complex assay"}, "[4]": {"target": "T1, COUP transcription factor 2 (Homo sapiens, UniProt P24468)", "T1 sequence (P24468 whole entry)": "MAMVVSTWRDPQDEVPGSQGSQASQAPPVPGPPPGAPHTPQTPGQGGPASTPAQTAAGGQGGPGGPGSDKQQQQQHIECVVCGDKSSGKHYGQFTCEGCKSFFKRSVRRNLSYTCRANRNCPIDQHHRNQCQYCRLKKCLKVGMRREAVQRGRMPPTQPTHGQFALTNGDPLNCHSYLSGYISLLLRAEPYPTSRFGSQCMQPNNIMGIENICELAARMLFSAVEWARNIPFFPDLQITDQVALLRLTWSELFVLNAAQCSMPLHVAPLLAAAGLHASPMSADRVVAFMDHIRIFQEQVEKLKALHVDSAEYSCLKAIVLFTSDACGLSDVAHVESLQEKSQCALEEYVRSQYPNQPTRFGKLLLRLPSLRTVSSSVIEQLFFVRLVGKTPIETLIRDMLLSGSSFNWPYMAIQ", "assay": "Luminescence-based cell-based high throughput dose response assay to identify inhibitors of COUP-TFII (NR2F2).", "type": "functional"}, "[5]": {"tested_on": "H4", "assay": "Luminescence Cell-Based Dose Response HTS to Identify Activators of 5'UTR Stem-Loop Driven Prion Protein mRNA Translation in H4 Neuroglioblastoma Cells. [Related pubchem assays: 1829 (Project Summary), 1814 (Primary HTS)]", "type": "functional", "conditions": "Homo sapiens"}, "[6]": {"assay": "Luminescence Cell-Based Dose Confirmation to Identify Activators of 5'UTR Stem-Loop Driven Alpha-Synuclein mRNA Translation in H4 Neuroglioblastoma Cells. [Related pubchem assays: 1829 (Project Summary), 1814 (Primary HTS)]", "type": "functional"}, "[7]": {"target": "CAAX prenyl protease 2 (Saccharomyces cerevisiae S288c, UniProt Q03530)", "type": "biochemical"}, "[8]": {"target": "Induced myeloid leukemia cell differentiation protein Mcl-1 (Homo sapiens, UniProt Q07820)", "assay": "blockers of MCL1 binding to BIM peptide – biochemical, fluorescence polarization, BIM-BH3 peptide, 1536-well, dose response (AID 2217)"}, "[9]": {"target": "14-3-3 protein gamma (Homo sapiens, UniProt P61981)", "sequence (P61981 whole entry)": "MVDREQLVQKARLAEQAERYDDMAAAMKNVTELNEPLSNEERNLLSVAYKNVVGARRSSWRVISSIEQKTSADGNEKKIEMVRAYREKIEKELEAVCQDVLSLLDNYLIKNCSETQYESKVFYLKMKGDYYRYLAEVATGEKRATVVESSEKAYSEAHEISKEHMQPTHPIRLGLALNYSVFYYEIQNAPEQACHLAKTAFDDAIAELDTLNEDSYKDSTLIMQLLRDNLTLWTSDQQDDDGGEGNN", "assay": "modulators of 14-3-3 gamma client binding – dose response (AID 711)", "type": "functional"}, "[10]": {"target": "Macrophage-stimulating protein receptor (Homo sapiens, UniProt Q04912)", "sequence (Q04912 25-304 limits assumed)": "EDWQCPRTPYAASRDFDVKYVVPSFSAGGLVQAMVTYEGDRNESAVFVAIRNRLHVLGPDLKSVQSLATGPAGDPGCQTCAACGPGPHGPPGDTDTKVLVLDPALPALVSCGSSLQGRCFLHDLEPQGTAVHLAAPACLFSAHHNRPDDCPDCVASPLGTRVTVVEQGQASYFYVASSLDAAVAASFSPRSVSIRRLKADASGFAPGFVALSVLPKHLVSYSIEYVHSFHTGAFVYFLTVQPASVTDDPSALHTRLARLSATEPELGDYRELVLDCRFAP", "sequence (Q04912 310-1400 limits assumed)": "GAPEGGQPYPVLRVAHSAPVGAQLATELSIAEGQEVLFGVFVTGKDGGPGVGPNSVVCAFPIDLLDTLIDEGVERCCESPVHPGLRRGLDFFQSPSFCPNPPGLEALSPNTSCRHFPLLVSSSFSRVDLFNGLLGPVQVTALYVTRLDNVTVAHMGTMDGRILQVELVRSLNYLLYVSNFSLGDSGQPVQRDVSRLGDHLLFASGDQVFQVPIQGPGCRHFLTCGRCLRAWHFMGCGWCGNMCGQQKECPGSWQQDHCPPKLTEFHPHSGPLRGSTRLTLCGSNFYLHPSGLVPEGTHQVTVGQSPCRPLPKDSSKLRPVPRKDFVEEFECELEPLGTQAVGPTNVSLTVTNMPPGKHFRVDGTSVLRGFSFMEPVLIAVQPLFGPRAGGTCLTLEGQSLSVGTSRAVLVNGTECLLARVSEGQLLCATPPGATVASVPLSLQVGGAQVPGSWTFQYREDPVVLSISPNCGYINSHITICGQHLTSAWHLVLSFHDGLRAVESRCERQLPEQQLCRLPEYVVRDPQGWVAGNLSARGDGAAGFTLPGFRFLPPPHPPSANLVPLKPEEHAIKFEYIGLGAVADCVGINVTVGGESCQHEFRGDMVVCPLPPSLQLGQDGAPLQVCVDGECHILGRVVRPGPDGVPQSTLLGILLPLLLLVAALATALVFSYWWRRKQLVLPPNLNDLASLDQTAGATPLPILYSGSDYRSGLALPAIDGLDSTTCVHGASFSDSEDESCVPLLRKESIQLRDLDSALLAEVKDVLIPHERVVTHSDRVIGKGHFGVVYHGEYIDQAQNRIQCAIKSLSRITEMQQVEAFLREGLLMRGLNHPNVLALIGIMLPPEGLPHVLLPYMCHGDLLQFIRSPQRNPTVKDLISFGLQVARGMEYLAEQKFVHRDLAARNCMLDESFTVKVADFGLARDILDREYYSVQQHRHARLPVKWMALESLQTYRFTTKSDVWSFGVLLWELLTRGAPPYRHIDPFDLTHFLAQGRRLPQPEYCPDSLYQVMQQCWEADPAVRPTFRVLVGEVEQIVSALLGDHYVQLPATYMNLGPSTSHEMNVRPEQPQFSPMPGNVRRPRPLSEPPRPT", "assay": "Navigating the Kinome. Panel member name: MST1R", "type": "functional"}, "[11]": {"target": "STE20-like serine/threonine-protein kinase (Homo sapiens, UniProt Q9H2G2)", "type": "functional"}, "[12]": {"target": "Insulin-like growth factor 1 receptor (Homo sapiens, UniProt P08069)", "assay": "Navigating the Kinome. Panel member name: IGF1R", "type": "functional"}, "[13]": {"target": "Calcium/calmodulin-dependent protein kinase type II subunit alpha (Homo sapiens, UniProt Q9UQM7)", "assay": "Navigating the Kinome. Panel member name: CAMK2A", "type": "functional"}, "[14]": {"target": "3-phosphoinositide-dependent protein kinase 1 (Homo sapiens, UniProt O15530)", "sequence (O15530 whole entry)": "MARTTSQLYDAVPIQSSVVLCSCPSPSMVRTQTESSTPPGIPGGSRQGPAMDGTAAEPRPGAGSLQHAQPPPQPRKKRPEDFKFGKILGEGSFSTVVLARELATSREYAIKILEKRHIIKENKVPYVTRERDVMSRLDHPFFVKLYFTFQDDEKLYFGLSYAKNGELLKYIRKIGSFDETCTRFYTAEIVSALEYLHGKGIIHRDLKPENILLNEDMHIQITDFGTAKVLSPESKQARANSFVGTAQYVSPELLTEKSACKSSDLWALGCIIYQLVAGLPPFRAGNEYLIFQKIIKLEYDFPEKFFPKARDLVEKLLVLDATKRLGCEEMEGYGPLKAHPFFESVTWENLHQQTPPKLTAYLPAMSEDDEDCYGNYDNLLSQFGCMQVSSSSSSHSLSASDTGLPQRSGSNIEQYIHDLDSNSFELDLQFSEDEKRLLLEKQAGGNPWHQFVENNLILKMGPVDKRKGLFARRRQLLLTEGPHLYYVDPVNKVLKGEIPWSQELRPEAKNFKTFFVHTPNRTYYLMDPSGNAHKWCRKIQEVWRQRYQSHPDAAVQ", "type": "functional"}, "[15]": {"target": "Phosphorylase b kinase gamma catalytic chain, liver/testis isoform (Homo sapiens, UniProt P15735)", "sequence (P15735 whole entry, canonical isoform)": "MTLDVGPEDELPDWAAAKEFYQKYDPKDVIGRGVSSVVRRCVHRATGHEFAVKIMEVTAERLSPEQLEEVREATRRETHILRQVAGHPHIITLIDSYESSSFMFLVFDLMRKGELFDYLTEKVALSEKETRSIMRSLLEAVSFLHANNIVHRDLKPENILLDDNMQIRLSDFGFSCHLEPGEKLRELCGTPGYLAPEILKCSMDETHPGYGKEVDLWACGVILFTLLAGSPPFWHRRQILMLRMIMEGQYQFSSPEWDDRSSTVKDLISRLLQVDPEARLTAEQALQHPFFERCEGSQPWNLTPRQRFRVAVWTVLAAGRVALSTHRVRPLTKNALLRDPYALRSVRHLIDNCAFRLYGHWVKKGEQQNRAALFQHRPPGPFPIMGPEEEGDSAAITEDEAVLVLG", "type": "functional"}, "[16]": {"target": "Receptor-type tyrosine-protein kinase FLT3 (Homo sapiens, UniProt P36888)", "type": "functional"}, "[17]": {"target": "Vascular endothelial growth factor receptor 3 (Homo sapiens, UniProt P35916)", "type": "functional"}, "[18]": {"target": "MAP kinase-activated protein kinase 5 (Homo sapiens, UniProt Q8IW41)", "type": "functional"}, "[19]": {"target": "Dual specificity tyrosine-phosphorylation-regulated kinase 1B (Homo sapiens, UniProt Q9Y463)", "assay": "Navigating the Kinome. Panel member name: DYRK1B", "type": "functional"}, "[20]": {"target": "Serine/threonine-protein kinase 3 (Homo sapiens, UniProt Q13188)", "type": "functional"}, "[21]": {"target": "Serine/threonine-protein kinase MRCK alpha (Homo sapiens, UniProt Q5VT25)", "type": "functional"}, "[22]": {"target": "SRSF protein kinase 1 (Homo sapiens, UniProt Q96SB4)", "sequence (Q96SB4 whole entry)": "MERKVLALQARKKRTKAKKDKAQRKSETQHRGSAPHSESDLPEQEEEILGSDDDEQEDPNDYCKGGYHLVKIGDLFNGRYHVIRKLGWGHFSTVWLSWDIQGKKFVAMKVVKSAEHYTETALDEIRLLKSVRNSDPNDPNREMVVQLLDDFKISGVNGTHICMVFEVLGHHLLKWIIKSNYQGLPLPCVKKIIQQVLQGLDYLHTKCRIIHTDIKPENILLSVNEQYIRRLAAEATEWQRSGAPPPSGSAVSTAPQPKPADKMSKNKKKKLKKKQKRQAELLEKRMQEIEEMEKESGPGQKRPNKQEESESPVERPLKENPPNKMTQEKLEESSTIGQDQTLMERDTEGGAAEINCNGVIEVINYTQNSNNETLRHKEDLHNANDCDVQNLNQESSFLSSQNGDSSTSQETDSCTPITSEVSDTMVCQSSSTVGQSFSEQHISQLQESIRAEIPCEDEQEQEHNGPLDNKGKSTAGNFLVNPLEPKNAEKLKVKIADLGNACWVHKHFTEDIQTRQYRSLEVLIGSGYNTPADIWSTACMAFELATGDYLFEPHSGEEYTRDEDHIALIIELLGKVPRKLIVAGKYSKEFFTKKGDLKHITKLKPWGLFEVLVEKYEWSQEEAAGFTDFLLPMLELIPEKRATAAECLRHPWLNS", "type": "functional"}, "[23]": {"target": "Protein kinase C iota type (Homo sapiens, UniProt P41743)", "sequence (P41743 whole entry)": "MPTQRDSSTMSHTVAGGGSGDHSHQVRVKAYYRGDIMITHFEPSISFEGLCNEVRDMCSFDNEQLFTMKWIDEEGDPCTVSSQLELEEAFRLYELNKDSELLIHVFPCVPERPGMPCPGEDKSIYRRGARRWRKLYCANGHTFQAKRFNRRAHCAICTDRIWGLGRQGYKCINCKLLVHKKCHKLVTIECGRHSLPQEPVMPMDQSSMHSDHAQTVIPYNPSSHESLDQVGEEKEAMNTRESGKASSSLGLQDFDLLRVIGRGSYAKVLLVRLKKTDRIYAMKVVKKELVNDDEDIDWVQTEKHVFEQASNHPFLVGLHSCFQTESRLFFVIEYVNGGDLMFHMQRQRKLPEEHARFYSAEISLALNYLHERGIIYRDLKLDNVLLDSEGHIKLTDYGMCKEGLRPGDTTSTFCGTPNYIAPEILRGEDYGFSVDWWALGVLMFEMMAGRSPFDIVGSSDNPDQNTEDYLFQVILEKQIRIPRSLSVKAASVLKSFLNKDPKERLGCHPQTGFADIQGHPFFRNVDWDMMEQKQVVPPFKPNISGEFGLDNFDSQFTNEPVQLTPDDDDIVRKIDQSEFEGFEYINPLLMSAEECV", "type": "functional"}, "[24]": {"target": "Cyclin-dependent kinase 7 (Homo sapiens, UniProt P50613)", "sequence (P50613 whole entry)": "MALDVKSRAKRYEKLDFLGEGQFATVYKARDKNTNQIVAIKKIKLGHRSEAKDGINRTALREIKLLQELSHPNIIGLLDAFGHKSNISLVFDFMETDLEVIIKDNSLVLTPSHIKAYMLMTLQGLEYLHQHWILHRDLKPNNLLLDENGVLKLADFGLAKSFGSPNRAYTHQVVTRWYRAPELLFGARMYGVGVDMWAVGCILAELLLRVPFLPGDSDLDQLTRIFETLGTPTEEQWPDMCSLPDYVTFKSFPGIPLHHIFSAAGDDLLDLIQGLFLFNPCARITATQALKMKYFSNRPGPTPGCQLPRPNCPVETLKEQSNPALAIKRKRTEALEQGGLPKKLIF", "type": "functional"}, "[25]": {"target": "Calcium/calmodulin-dependent protein kinase type II subunit gamma (Homo sapiens, UniProt Q13555)", "type": "functional"}, "[26]": {"target": "Tyrosine-protein kinase Fer (Homo sapiens, UniProt P16591)", "type": "functional"}, "[27]": {"target": "Dual specificity mitogen-activated protein kinase kinase 2 (Homo sapiens, UniProt P36507)", "assay": "Navigating the Kinome. Panel member name: MAP2K2", "type": "functional"}, "[28]": {"target": "Cyclin-dependent kinase 8 (Homo sapiens, UniProt P49336)", "assay": "Navigating the Kinome. Panel member name: CDK8", "type": "functional"}, "[29]": {"target": "Mitogen-activated protein kinase 13 (Homo sapiens, UniProt O15264)", "type": "functional"}, "[30]": {"target": "Testis-specific serine/threonine-protein kinase 1 (Homo sapiens, UniProt Q9BXA7)", "sequence (Q9BXA7 whole entry)": "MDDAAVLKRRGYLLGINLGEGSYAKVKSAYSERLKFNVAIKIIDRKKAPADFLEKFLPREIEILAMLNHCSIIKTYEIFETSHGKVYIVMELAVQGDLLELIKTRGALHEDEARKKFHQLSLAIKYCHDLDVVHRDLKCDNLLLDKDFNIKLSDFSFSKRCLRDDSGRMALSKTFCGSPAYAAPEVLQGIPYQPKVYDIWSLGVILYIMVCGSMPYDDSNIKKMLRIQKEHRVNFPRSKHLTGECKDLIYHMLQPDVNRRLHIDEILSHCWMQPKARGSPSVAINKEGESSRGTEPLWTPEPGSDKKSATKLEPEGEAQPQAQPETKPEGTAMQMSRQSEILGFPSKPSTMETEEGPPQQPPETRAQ", "type": "functional"}, "[31]": {"target": "Protein kinase C zeta type (Homo sapiens, UniProt Q05513)", "type": "functional"}}, "note": "Counter-ions that a name gives are not always drawn. Activity calls are given as the source filed them.", "data": [{"smiles": "CCC(C)n1c(NC(=O)c2ccccc2)c(C#N)c2nc3ccccc3nc21", "note": "(stereo unspecified)", "values": [{"measurement": "EC50", "setting": "[1]", "value": "4.6 µM (active)"}, {"measurement": "CC50", "setting": "[2]", "value": "28.1 µM (active)"}, {"measurement": "IC50", "setting": "[3]", "value": "8.4 µM (active)"}]}, {"smiles": "CCN1/C(=C\\c2ccc3ccccc3[n+]2CC)Sc2cc(C)ccc21", "values": [{"measurement": "IC50", "setting": "[4]", "value": "2.75 µM (active)"}, {"measurement": "EC50", "setting": "[5]", "value": "> 120 µM (not active)"}, {"measurement": "EC50", "setting": "[6]", "value": "> 12 µM (not active)"}]}, {"smiles": "CCCCCCCCCCOC(=O)C[n+]1c(COc2ccc(C)cc2)n(C)c2ccccc21", "values": [{"measurement": "AC50", "setting": "[7]", "value": "5.51 µM (active)"}]}, {"smiles": "CC[C@@H](CO)NC(=O)[C@@H]1C=C2c3cccc4c3c(cn4C)C[C@H]2N(C)C1", "note": "[METHYSERGIDE MALEATE]", "values": [{"measurement": "IC50", "setting": "[8]", "value": "20.4 µM (not active)"}, {"measurement": "IC50", "setting": "[9]", "value": "> 50 µM (not active)"}]}, {"smiles": "CN1CCN(c2nc(C3=C(c4c[nH]c5ccccc45)C(=O)NC3=O)c3ccccc3n2)CC1", "note": "[SOTRASTAURIN]", "values": [{"measurement": "Ki", "setting": "[10]", "value": "0.158 µM (active)"}, {"measurement": "Ki", "setting": "[11]", "value": "0.126 µM (active)"}, {"measurement": "Ki", "setting": "[12]", "value": "> 2 µM (inactive)"}, {"measurement": "Ki", "setting": "[13]", "value": "3.16 µM (active)"}, {"measurement": "Ki", "setting": "[14]", "value": "1.58 µM (active)"}, {"measurement": "Ki", "setting": "[15]", "value": "> 5.01 µM (inactive)"}, {"measurement": "Ki", "setting": "[16]", "value": "> 1.58 µM (inactive)"}, {"measurement": "Ki", "setting": "[17]", "value": "0.316 µM (active)"}, {"measurement": "Ki", "setting": "[18]", "value": "> 1.58 µM (inactive)"}, {"measurement": "Ki", "setting": "[19]", "value": "> 2.51 µM (inactive)"}, {"measurement": "Ki", "setting": "[20]", "value": "0.126 µM (active)"}, {"measurement": "Ki", "setting": "[21]", "value": "> 10 µM (inactive)"}, {"measurement": "Ki", "setting": "[22]", "value": "> 7.94 µM (inactive)"}, {"measurement": "Ki", "setting": "[23]", "value": "0.398 µM (active)"}, {"measurement": "Ki", "setting": "[24]", "value": "> 3.98 µM (inactive)"}, {"measurement": "Ki", "setting": "[25]", "value": "0.0794 µM (active)"}, {"measurement": "Ki", "setting": "[26]", "value": "0.316 µM (active)"}, {"measurement": "Ki", "setting": "[27]", "value": "> 3.98 µM (inactive)"}, {"measurement": "Ki", "setting": "[28]", "value": "> 3.98 µM (inactive)"}, {"measurement": "Ki", "setting": "[29]", "value": "> 7.94 µM (inactive)"}, {"measurement": "Ki", "setting": "[30]", "value": "> 1.58 µM (inactive)"}, {"measurement": "Ki", "setting": "[31]", "value": "0.0631 µM (active)"}]}]}
